Patent US20230256033A1, “PHYSIOLOGICALLY ACCEPTABLE COMPOSITIONS CONTAINING MICROORGANISMS OR MICROBIAL PRODUCTS” (FLAGSHIP PIONEERING INNOVATIONS VI, LLC, priority 2020, published 2023)

System: LPS induced NFkB activity in THP1-Blue™ cells
Test: Suppression of LPS induced NFkB in human monocyte THP-1 reporter cells (THP1-BLUE NFkB, SEAP)
Assay type: cell-based
Conditions: IKK 16 at 2 μM; LPS 100 ng/mL 18 hours

O=C(c1ccc(Nc2nccc(-c3cc4ccccc4s3)n2)cc1)N1CCC(N2CCCC2)CC1 [IKK 16]
Suppression of LPS induced NFkB activity in THP1-Blue ™ cells (control for suppression): −80%
